Results published in article PMC8524858, “Dual inhibition of αvβ6 and αvβ1 reduces fibrogenesis in lung tissue explants from patients with IPF” (Respiratory Research, 2021).

Assays:
[1] = molecular target: T1, human integrin αvβ1 (Homo sapiens, UniProt P05556+P06756); experiment: Integrin ligand-binding assay, αvβ1 (fibronectin ligand)
T1 construct: purchased ACROBiosystems or R&D Systems IT1-H52E1 or 6579-AVB
Description: (§1) Integrin ligand-binding assays were performed similar to that previously described.
(§2) Microplates were coated with recombinant human integrins dissolved in PBS (2 µg/ml, overnight at room temperature). Following removal of the coating solution, plates were washed with PBS. Plates were blocked with 200 µL/well of blocking buffer (2% bovine serum albumin [BSA] in PBS) at 37 °C for 1 h. […] Plates were incubated for 2 h at 25 °C, washed, and incubated for 1 h with biotin-labeled anti-fibronectin or anti-LAP antibodies (for αvβ1 or αvβ6/αvβ8, respectively).

[2] = molecular target: T2, human integrin αvβ6 (Homo sapiens, UniProt P06756+P18564); experiment: Integrin ligand-binding assay, αvβ6 (LAP ligand)
T2 construct: purchased ACROBiosystems or R&D Systems IT6-H52E1 or 3817-AV
Description: as §1, §2

[3] = molecular target: T3, human integrin αvβ3 (Homo sapiens, UniProt P05106+P06756); experiment: Integrin ligand-binding assay, αvβ3 (vitronectin ligand)
T3 construct: purchased R&D Systems 3050-AV
Description: as §1, §2

[4] = molecular target: T4, human integrin αvβ5 (Homo sapiens, UniProt P06756+P18084); experiment: Integrin ligand-binding assay, αvβ5 (vitronectin ligand)
T4 construct: purchased R&D Systems 2528-AV
Description: as §1, §2

[5] = molecular target: T5, human integrin αvβ8 (Homo sapiens, UniProt P06756+P26012); experiment: Integrin ligand-binding assay, αvβ8 (LAP ligand)
T5 construct: purchased R&D Systems 4135-AV
Description: as §1, §2

[6] = tested on: αvβ1-induced TGF-β activation; experiment: TGF-β co-culture assay, CHO-αv cells with MLEC luciferase reporter cells; type: cell-based, human; details: integrin αvβ1
Description: (§3) SW-β6 cells and MLECs or CHO-αv cells and MLECs were cultured in 96-well plates with test compounds or antibodies for 20 h at 37 °C in a 5% CO2 incubator. […] Measurement of MLEC luciferase production resulting from αvβ6- or αvβ1-mediated TGF-β activation was performed using the Bright-Glo Luciferase Assay System (Promega; Madison, WI, USA) according to manufacturer’s instruction. Luminescence was quantified by a Tecan Spark 10M plate reader. IC50 curves were generated using Dotmatics software suite with five-parameter logistic curve fitting. Geometric mean IC50 was calculated for each compound from multiple independent analyses.

[7] = molecular target: T6, αvβ6-induced TGF-β activation (Homo sapiens, UniProt P06756+P18564); experiment: TGF-β co-culture assay, SW-β6 cells with MLEC luciferase reporter cells; type: cell-based; details: integrin αvβ6
T6 construct: expressed in transfected cells; host or cells: SW480 cells stably transfected with β6 (SW-β6), co-cultured with MLEC reporter cells
Description: as §3

[8] = tested on: PCLSs prepared from bleomycin-challenged mouse lungs; experiment: Col1a1 expression in PCLSs from bleomycin-challenged mouse lungs; type: cell-based; details: for inhibition of collagen mRNA expression: acutely injured mouse lungs, 3 days, PLN-74809 200 nM, GSK3008348 1000 nM, CWHM-12 1000 nM (Fig. 2B); for IC50: Mus musculus, 72 h, 3 days of treatment, extrapolation from dose-response curve of combined experiments (Fig. S4), read-out: minimum concentration required to reduce Col1a1 mRNA levels by 50%; for effect on Col1a1 gene expression: chronic bleomycin-challenged mouse lungs, 7 days of treatment, nintedanib and pirfenidone at approximate clinical Cmax (Fig. 6C); for concentration for 50% reduction in collagen gene expression relative to concentration approximating Cmax: dose titrations in PCLSs from bleomycin-challenged mouse lungs
Source text: (§4) PCLSs were generated from explanted lung tissue from patients with IPF and cultured as previously described. Mouse PCLSs were generated and cultured as previously described. Messenger ribonucleic acid (mRNA) levels in lysates prepared from snap-frozen tissue slices were quantified via NanoString PlexSet reagents and nCounter SPRINT Profiler (NanoString; Seattle, WA, USA; Additional file 1: Table S2) or TaqMan primers/probes on a Bio-Rad CFX96 thermocycler (Bio-Rad; Hercules, CA, USA; Additional file 1: Table S3).
Mouse PCLSs were generated and cultured based on previously reported methods (E13). Briefly, mice were challenged with bleomycin (Hospira; Lake Forest, IL, USA or Teva; Toronto, ON, Canada), either acutely with a single dose (3 U/kg or 4 U/kg) or chronically with multiple doses (3 U/kg bleomycin followed by four 1 U/kg challenges at 2-week intervals). Fourteen days after the final bleomycin challenge, lungs were harvested and 200 μm-thick slices were cut using a Compresstome VF-300-0Z (Precisionary Instruments).
(§5) Slices from each individual core (human) or mouse were distributed among the treatment groups to control for variability in the fibrotic injury within the tissue. […] After 3 or 7 days in culture, slices were washed and snap-frozen. Viability of sentinel slices on Days 0/1 and 3/7 was determined using WST-1 Cell Proliferation Reagent (Sigma 5015944001; St Louis, MO, USA).
(§6) For all figures (except Fig. 2B, Fig. S2, and Fig. S4), snap-frozen tissue slices were incubated in one-third RLT buffer (Qiagen #79216; Venlo, Netherlands) supplemented with 2 mg/ml proteinase K (Sigma-Aldrich #3115887001; St Louis, MO, USA) at 55 °C for 2 h 45 min, with periodic vortexing to generate ribonucleic acid (RNA)-compatible tissue lysate. This lysate was incubated overnight with probes from a custom fibrosis gene panel and NanoString PlexSet reagents (Table S2). The following day, samples were analyzed on a NanoString nCounter SPRINT Profiler (NanoString; Seattle, WA, USA). Messenger RNA (mRNA) counts were normalized to housekeeping genes (GUSB, HPRT1, RPLP0, and/or POLR1B) and total mRNA counts, relative to vehicle-treated control from the same experiment, are reported.
For Figs. 2B, S2, and S4, RNA purification and qPCR were performed by Transcriptic, Inc. (Menlo Park, CA, USA) using a proprietary automated protocol. Briefly, RNA was purified on a KingFisher Flex system (Thermo Fisher) and qPCR was performed on a Bio-Rad CFX96 (Bio-Rad; Hercules, CA, USA) with TaqMan primers/probes (Thermo Fisher) listed in Table S3. Ct values were normalized to housekeeping genes (Rn18sRn45s and Hprt) and reported as ddCT and fold change versus the vehicle-treated samples.

[9] = tested on: PCLSs prepared from explanted lung tissue from patients with IPF; experiment: Fibrotic gene expression in PCLSs from IPF lung explants; type: cell-based, human
Source text: as §4
Human PCLSs were generated from lung tissue explants from patients with IPF undergoing transplant surgery and cultured based on previously reported methods (E7-E12). Slices of tissue (400 µm) were cut using a Compresstome VF-300-0Z (Precisionary Instruments; Natick, MA, USA).
as §5, §6

[10] = set-up: method as in PMID 25504994; details: patients with IPF; read-out: approximate clinical maximum observed drug concentration (Cmax); cited from earlier work
[11] = 7 days, PLN-74809 200 nM, nintedanib 75 nM, pirfenidone 50 µM, vs DMSO (Fig. 6A)

T4 sequence (P06756 31-992 limits assumed): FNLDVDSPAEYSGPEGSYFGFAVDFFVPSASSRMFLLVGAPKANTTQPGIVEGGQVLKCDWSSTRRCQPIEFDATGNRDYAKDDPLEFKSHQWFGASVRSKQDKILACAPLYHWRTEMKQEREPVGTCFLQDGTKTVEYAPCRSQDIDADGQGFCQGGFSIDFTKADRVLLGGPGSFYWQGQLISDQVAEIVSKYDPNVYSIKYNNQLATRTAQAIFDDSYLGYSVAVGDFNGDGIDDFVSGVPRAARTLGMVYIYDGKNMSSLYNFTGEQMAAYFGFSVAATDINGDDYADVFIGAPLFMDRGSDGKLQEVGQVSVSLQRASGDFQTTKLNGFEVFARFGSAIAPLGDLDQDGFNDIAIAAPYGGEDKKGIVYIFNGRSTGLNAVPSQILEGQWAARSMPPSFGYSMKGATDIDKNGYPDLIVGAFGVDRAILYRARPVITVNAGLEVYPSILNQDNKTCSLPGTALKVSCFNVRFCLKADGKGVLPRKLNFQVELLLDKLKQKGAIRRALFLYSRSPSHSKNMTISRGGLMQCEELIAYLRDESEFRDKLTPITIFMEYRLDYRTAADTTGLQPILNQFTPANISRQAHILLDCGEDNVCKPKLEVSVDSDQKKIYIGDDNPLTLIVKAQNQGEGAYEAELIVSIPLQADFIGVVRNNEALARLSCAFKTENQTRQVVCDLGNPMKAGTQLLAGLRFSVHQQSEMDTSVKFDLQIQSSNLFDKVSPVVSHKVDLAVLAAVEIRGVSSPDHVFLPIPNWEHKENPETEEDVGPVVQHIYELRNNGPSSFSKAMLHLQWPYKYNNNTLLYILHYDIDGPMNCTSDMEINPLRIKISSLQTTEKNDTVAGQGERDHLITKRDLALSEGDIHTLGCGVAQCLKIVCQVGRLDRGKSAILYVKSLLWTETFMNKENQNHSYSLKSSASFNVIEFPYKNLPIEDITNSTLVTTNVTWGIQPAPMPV
T4 sequence (P18084 24-719 limits assumed): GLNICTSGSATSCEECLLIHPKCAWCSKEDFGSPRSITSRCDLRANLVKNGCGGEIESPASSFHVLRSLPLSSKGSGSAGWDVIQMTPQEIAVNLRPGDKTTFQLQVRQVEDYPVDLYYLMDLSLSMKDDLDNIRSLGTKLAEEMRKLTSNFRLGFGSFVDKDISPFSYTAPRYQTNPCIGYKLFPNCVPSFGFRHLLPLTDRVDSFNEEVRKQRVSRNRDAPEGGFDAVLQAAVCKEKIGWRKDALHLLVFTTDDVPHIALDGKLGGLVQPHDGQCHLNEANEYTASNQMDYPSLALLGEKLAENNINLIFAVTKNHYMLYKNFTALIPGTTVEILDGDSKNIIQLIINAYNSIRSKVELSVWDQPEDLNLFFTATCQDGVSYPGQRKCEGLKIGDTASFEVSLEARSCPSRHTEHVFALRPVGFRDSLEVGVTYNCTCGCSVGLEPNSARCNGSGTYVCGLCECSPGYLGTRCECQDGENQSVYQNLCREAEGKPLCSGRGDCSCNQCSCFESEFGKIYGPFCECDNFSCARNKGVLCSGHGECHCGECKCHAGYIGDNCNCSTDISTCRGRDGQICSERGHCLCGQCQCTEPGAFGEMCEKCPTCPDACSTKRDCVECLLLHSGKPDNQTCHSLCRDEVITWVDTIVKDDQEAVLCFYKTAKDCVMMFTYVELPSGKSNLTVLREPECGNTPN
T5 sequence (P06756 31-992 limits assumed): as the sequence (P06756 31-992 limits assumed) above
T5 sequence (P26012 43-684 limits assumed): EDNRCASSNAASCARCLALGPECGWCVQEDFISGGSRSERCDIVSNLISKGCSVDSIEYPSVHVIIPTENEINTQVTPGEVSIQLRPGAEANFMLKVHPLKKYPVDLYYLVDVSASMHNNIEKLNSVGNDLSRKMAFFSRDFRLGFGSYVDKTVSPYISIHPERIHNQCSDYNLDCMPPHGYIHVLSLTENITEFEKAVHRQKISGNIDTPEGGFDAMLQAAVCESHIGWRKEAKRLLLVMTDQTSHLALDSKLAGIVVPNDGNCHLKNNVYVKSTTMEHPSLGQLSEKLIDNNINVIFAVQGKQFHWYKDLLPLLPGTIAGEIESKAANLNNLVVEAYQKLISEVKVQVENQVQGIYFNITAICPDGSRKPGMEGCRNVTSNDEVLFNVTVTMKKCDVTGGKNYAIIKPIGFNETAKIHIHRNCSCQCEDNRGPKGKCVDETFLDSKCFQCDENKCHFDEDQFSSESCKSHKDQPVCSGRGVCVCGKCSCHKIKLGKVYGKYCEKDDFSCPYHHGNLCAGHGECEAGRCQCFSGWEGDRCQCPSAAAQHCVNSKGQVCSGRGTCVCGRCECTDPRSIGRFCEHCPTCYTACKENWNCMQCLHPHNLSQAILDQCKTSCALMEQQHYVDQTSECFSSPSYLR
T1 sequence (P06756 31-992 limits assumed): as the sequence (P06756 31-992 limits assumed) above
T1 sequence (P05556 21-728 limits assumed): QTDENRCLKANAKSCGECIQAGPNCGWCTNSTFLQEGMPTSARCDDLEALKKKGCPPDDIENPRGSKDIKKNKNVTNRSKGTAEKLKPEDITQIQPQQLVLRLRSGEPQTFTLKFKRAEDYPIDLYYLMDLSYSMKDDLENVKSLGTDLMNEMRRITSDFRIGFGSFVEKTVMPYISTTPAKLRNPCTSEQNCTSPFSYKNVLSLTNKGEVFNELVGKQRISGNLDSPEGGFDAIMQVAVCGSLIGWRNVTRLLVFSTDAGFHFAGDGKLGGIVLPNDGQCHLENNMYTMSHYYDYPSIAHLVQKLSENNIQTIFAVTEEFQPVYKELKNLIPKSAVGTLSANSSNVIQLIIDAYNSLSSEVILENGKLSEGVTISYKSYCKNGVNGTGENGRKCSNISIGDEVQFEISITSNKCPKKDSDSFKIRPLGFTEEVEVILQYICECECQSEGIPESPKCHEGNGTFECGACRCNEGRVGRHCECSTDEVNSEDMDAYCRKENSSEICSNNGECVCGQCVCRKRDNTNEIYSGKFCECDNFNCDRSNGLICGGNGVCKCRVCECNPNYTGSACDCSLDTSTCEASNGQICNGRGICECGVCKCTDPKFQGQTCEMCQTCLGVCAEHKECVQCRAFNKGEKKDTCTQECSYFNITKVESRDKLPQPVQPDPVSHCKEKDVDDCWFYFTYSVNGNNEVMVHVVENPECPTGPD
T3 sequence (P06756 31-992 limits assumed): as the sequence (P06756 31-992 limits assumed) above
T3 sequence (P05106 27-718 limits assumed): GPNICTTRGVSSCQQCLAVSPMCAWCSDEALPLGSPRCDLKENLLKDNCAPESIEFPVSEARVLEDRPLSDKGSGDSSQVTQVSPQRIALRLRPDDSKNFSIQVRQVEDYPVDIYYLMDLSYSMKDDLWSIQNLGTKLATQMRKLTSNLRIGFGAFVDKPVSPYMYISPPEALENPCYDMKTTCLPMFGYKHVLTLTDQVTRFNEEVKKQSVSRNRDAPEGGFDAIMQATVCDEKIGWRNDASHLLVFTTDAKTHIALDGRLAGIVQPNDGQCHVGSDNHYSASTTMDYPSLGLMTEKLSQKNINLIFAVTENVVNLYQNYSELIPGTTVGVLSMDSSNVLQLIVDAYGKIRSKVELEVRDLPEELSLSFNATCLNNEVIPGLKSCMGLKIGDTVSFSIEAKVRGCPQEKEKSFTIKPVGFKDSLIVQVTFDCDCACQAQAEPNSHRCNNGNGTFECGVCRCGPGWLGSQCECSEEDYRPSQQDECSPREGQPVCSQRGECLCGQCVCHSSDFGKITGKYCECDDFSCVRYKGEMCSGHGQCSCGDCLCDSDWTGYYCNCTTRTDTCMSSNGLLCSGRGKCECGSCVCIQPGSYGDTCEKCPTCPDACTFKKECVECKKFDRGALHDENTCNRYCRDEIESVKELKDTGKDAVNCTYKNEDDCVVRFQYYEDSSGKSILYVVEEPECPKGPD
T2 sequence (P06756 31-992 limits assumed): as the sequence (P06756 31-992 limits assumed) above
T2 sequence (P18564 22-707 limits assumed): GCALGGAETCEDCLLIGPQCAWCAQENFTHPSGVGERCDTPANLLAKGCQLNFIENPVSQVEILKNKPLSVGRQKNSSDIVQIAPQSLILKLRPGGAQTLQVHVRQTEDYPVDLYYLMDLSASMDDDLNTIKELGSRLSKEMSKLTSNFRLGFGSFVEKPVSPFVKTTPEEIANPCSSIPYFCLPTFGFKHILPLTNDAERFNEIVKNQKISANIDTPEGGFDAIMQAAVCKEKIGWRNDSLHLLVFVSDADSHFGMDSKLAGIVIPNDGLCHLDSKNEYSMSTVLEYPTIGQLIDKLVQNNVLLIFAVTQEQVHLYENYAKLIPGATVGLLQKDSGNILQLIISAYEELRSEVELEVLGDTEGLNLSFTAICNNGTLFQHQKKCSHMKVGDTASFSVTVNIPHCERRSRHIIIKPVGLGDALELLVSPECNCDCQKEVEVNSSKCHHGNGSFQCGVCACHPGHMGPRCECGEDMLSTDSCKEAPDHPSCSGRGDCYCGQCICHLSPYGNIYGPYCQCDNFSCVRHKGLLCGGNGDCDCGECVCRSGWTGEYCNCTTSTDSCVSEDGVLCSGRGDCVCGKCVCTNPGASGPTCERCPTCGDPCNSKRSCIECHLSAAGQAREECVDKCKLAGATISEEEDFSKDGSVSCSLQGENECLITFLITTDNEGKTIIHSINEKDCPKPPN

Row | Compound | IC50 [6] [nM] | inhibition of collagen mRNA expression [8] | reduction of COL1A1 mRNA expression [9, 11] | IC50 [8] [nM] | effect on Col1a1 gene expression [8] | concentration for 50% reduction in collagen gene expression relative to concentration approximating Cmax [8] [×] | Cmax [10] [µM] | other results
1 | CC(C)(C)c1cc(Br)cc([C@H](CC(=O)O)NC(=O)CNC(=O)c2cc(O)cc(NC3=NCC(O)CN3)c2)c1 (stereo partly shown) [CWHM-12, reference compound] | 2 | no additional reduction | – | – | – | – | – | IC50 [1]: 1.3 nM; Fold selectivity (vs αvβ1) ([1]; ligand binding): 1×; IC50 [2]: 6.1 nM; Fold selectivity (vs αvβ1) ([2]; ligand binding): 4.7×; IC50 [3]: 0.7 nM; Fold selectivity (vs αvβ1) ([3]; ligand binding): 0.5×; IC50 [4]: 5.3 nM; Fold selectivity (vs αvβ1) ([4]; ligand binding): 4.1×; IC50 [5]: 7.3 nM; Fold selectivity (vs αvβ1) ([5]; ligand binding): 5.6×; Fold selectivity (vs αvβ1) ([6]; TGF-β activation): 1×; Fold selectivity (vs αvβ1) ([7]; TGF-β activation): 159×; IC50 [7]: 318 nM
2 | Cc1cccc(-c2[nH]ncc2-c2ccc(F)c(-c3cnn(CCO)c3)c2)n1 [Compound R-268712, reference compound] | – | – | – | – | – | – | – | reduction of COL1A1 mRNA expression ([9]; 7-day incubation, Compound A 471 nM, 3G9 0.5 µg/ml, PLN-74809 1.82 µM, ALK5i R-268712 1 µM, vs vehicle (Fig. 1A)): ~ 80%
3 | Cc1cc(C)n(-c2cccc([C@H](CC(=O)O)CN3CC[C@@H](CCc4ccc5c(n4)NCCC5)C3)c2)n1 [GSK3008348, (S)-3-(3-(3,5-Dimethyl-1 H-pyrazol-1-yl)phenyl)-4-((R)-3-(2-(5,6,7,8-tetrahydro-1,8-naphthyridin-2-yl)ethyl)pyrrolidin-1-yl)butanoic acid] | 17.4 | no additional reduction | – | – | – | – | – | –
4 | COC(=O)c1ccc2c(c1)NC(=O)/C2=C(\Nc1ccc(N(C)C(=O)CN2CCN(C)CC2)cc1)c1ccccc1 [nintedanib] | – | – | no effect | 897 | did not significantly alter | > 10 | ~0.075 | –
5 | Cc1ccc(=O)n(-c2ccccc2)c1 [pirfenidone] | – | – | no effect | 678000 | did not significantly alter | > 10 | ~50 | –
